# Data from article PMC3409373, “Ellagic acid, a phenolic compound, exerts anti-angiogenesis effects via VEGFR-2 signaling pathway in breast cancer” (Breast Cancer Research and Treatment, 2012).
# Molecular target: T1, VEGFR-2 (Homo sapiens, UniProt P35968)
# T1 construct: gene KDR
# Assay: ELISA-based tyrosine kinase assay with VEGFR-2 (Upstate), poly-Glu-Tyr substrate, Mg2+ and ATP
# Type: biochemical
# T1 sequence (P35968 20-1356): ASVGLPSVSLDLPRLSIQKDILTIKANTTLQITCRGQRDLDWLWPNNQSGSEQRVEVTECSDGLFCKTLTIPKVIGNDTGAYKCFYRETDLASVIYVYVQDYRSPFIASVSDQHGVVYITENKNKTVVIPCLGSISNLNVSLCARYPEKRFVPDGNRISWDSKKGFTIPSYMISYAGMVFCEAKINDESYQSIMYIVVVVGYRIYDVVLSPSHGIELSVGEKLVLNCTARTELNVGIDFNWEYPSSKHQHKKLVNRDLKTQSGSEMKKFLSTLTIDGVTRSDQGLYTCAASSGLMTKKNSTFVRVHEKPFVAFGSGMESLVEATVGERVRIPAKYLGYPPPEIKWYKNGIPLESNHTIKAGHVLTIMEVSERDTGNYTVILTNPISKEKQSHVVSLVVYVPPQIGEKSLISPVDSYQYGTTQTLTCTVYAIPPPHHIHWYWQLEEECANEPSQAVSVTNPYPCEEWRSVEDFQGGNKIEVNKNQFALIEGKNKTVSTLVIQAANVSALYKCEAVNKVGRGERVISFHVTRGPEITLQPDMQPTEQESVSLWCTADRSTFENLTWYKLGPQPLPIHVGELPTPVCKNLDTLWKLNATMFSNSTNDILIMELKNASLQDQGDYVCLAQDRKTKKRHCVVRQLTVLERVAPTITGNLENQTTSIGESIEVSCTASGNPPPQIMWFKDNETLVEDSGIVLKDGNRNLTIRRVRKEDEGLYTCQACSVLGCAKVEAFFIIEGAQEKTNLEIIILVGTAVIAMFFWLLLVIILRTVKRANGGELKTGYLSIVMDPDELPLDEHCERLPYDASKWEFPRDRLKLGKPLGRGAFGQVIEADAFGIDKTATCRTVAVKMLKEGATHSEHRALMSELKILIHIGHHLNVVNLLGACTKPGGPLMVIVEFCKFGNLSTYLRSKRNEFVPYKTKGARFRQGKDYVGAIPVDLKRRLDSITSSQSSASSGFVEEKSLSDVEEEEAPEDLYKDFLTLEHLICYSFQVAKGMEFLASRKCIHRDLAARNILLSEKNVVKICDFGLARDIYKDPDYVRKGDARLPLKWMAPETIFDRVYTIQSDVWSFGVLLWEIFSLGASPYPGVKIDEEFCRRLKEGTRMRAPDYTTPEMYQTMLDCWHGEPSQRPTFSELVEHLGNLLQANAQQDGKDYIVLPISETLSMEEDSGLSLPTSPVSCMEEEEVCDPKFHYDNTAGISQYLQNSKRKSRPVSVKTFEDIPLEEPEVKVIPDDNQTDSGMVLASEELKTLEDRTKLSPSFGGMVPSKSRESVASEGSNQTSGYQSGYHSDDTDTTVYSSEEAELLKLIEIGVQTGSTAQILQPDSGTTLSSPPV
structure (smiles),measurement,value
"O=c1oc2c(O)c(O)cc3c(=O)oc4c(O)c(O)cc1c4c23 [ellagic acid, 4,4′,5,5′6, 6′-hexahydroxydiphenic acid 2,6,2′6′-dilactone]",IC50,~25.8 nM
